Reference: patent publication US20070244202A1, “Ampk Activator” (KAO CORPORATION, priority 2004, published 2007)

Experiments:
[1] = system: AMPK (AMP-activated protein kinase); experiment: AMPK activation evaluated by phosphorylation of AMPK α and β (Western blot) in mouse muscle cell line C2C12; assay type: cell-based
Procedure: (§1) The AMPK activation effect of resveratrol was evaluated on the basis of phosphorylation of AMPK α and β through the below-described method by use of a mouse muscle cell line (C2C12). Mouse muscle cells (C2C12) were seeded in a 25-cm^2 flask, and cultured in DMEM (+10% FBS, +antibacterial agent) at 37° C. for one to two days. The culture medium was removed when the cells reached confluent, and the cells were washed with PBS (−), followed by replacement with DMEM (2 mass % Horse serum) and further culturing for seven to eight days while the culture medium was exchanged every two or three days. Thereafter, the culture medium was removed, and the cells were washed with PBS (−), followed by replacement with DMEM (−FBS) and further culturing for one day. After the culture medium was removed, DMEM (−FBS) containing a predetermined amount of resveratrol was added, followed by culturing for 60 minutes. […] After the concentration of the supernatant protein was measured, the protein concentration was regulated to a constant level between samples. […] Thereafter, phospho-AMPK was detected by use of anti-phospho-AMPKα (Thr72) antibody (product of Cell Signaling) or anti-phospho-AMPKβ (Ser108) antibody (product of Cell Signaling) serving as a primary antibody, anti-rabbit-HRP antibody (product of Amersham) serving as a secondary antibody, and phototope-HRP Western Detection System (product of Cell Signaling) serving as a detection reagent. The intensity of the thus-detected band was converted into numerical data (pixels) through image analysis (EDAS 290 image analysis system: KODAK), and the degree of AMPK activation was calculated relative to the control (i.e., group containing no sample), which was taken as 100. […]

[2] = system: AMPK (AMP-activated protein kinase); experiment: AMPK activation evaluated by phosphorylation of AMPK α and β (Western blot) in mouse hepatocyte line Hepa 1-6; assay type: cell-based; settings: Hepa 1-6 cells
Procedure: as §1, with “mouse hepatocyte” for “mouse muscle cell”, “line (Hepa 1-6).” for “line (C2C12).”, “Mouse hepatocyte” for “Mouse muscle”, “cells (Hepa 1-6)” for “cells (C2C12)”, “cells became subconfluent,” for “cells reached confluent, and the cells were washed with PBS (−), followed by replacement with DMEM (2 mass % Horse serum) and further culturing for seven to eight days while the culture medium was exchanged every two or three days. Thereafter, the culture medium was removed,”, “60 minutes. Thereafter, the culture medium was removed, and the cells were washed with PBS (−), followed by addition of 200 μL of a cytolytic solution (10 mmol/L Tris (pH 7.4), 50 mmol/L sodium chloride, 30 mmol/L sodium pyrophosphate, 0.5 mass % Triton X-100, protease inhibitor cocktail (SIGMA P2714), phosphatase inhibitor cocktail-2 (SIGMA P5726)). The resultant cell lysate was collected with a cell scraper. The thus-collected cell lysate was thoroughly homogenized by passing it through a syringe using a 23-G needle (3 times), and then the cell lysate was allowed to stand on ice for 30” for “60”

[3] = system: lipid metabolism activity (β-oxidation activity); experiment: Lipid metabolism activating effect: lipid degradation (β-oxidation) activity of liver and skeletal muscle after oral administration; assay type: in vivo, mouse
Procedure: Seven-week-old Balb/c male mice were divided into two groups, and saline (control) or resveratrol (200 mg/kg body weight) was orally administered for 10 consecutive days. Thereafter, the liver and skeletal muscle (gastrocnemius muscle+soleus muscle) were collected from each of the animals. Each of the thus-collected liver and skeletal muscle was homogenized in buffer (250 mM sucrose, 1 mM EDTA in 10 mM HEPES (pH 7.2)), and insoluble tissue residues were centrifugally separated, whereby a supernatant was obtained. The thus-obtained supernatant was subjected to measurement of protein content, and the protein content was regulated to a constant level between samples. Each of the resultant samples was employed for measurement of lipid metabolism activity (β-oxidation activity). The supernatant protein (100 μg) was reacted with 0.1 μCi [^14C]-palmitic acid at 37° C. for 20 minutes in 200 μL (final volume) of buffer (50 mM Tris-HCl (pH 8.0), 40 mM NaCl, 2 mM KCl, 2 mM MgCl2, 1 mM DTT, 5 mM ATP, 0.2 mM L-carnitine, 0.2 mM NAD, 0.06 mM FAD, 0.12 mM CoA, 3 mM α-cyclodextrin). The reaction was stopped with 200 μL of 0.6 N perchloric acid, and then unreacted [^14C]-palmitic acid was removed three times with hexane (1 mL). Lipid degradation activity was evaluated through measurement of the radioactivity of the aqueous layer.
Lipid degradation activity was calculated relative to that of the control, which was taken as 100. […] As is clear from the test results, resveratrol is effective for activation of lipid metabolism.

C57BL/6 male mice = experiment: Efficacy of resveratrol in mice fed a high-fat diet for 24 weeks (body, fat and liver weight, blood analysis); assay type: in vivo, mouse
Procedure: Seven-week-old C57BL/6 male mice (CLEA Japan, Inc.) were employed, and the animals were divided into three groups, each containing 10 to 15 animals. Twenty-four weeks after initiation of the test, body weight was measured, and blood was collected under anesthesia and non-fasting conditions for measurement of plasma glucose, cholesterol, insulin, and leptin. In addition, visceral fat weight (epididymal fat, retroperitoneal fat, and perirenal fat) and liver weight were measured. In Example 3, resveratrol manufactured by Cayman was employed. [table]

[4] = 0.2% resveratrol in high-fat diet vs high-fat diet, P<0.01
[5] = 0.2% resveratrol in high-fat diet vs high-fat diet, P<0.05

## Oc1ccc(/C=C/c2cc(O)cc(O)c2)cc1 [Resveratrol, 3,4′,5-trihydroxy-trans-stilbene]
[1]; C2C12 cells, resveratrol 150 μmol/L, 60 minutes, anti-phospho-AMPKα (Thr72) antibody, control = 100
  Phospho-AMPKα (degree of AMPK activation relative to control taken as 100): 848
[1]; C2C12 cells, resveratrol 150 μmol/L, 60 minutes, anti-phospho-AMPKβ (Ser108) antibody, control = 100
  Phospho-AMPKβ (degree of AMPK activation relative to control taken as 100): 425
[1]; summary of Table 2
  AMPK activation effect in muscle cells (in words): potent AMPK activation effect
[2]; resveratrol 150 μmol/L, 60 minutes, anti-phospho-AMPKα (Thr72) antibody, control = 100
  Phospho-AMPKα (degree of AMPK activation relative to control taken as 100): 538
[2]; resveratrol 150 μmol/L, 60 minutes, anti-phospho-AMPKβ (Ser108) antibody, control = 100
  Phospho-AMPKβ (degree of AMPK activation relative to control taken as 100): 168
[2]; summary of Table 1
  AMPK activation effect (in words): potent AMPK activation effect
[3]; Balb/c male mice, resveratrol 200 mg/kg body weight orally for 10 consecutive days, gastrocnemius + soleus muscle homogenate, [14C]-palmitic acid, control = 100
  Lipid degradation activity (β-oxidation activity) of skeletal muscle relative to control taken as 100: 243
[3]; Balb/c male mice, resveratrol 200 mg/kg body weight orally for 10 consecutive days, liver homogenate, [14C]-palmitic acid, control = 100
  Lipid degradation activity (β-oxidation activity) of liver relative to control taken as 100: 323
[3]; resveratrol 200 mg/kg orally for 10 days vs saline control, liver p<0.001, muscle p<0.001
  Lipid degradation activity (β-oxidation activity) of the liver and skeletal muscle (in words): considerably increases
C57BL/6 male mice; 0.2% resveratrol in high-fat diet vs high-fat diet
  Blood insulin level, group 3 compared with group 2 (in words): lower than that in group 2
C57BL/6 male mice; 0.2% resveratrol in high-fat diet vs high-fat diet, P<0.001
  Body weight, group 3 compared with group 2 (in words): significantly lower than that in group 2
C57BL/6 male mice; [4]
  Blood leptin level, group 3 compared with group 2 (in words): significantly lower than that in group 2
  Visceral fat weight, group 3 compared with group 2 (in words): significantly lower than that in group 2
C57BL/6 male mice; [5]
  Liver weight, group 3 compared with group 2 (in words): significantly lower than that in group 2
  Total cholesterol level, group 3 compared with group 2 (in words): significantly lower than that in group 2
C57BL/6 male mice; 0.2% resveratrol in high-fat diet vs high-fat diet, P<0.1
  Blood glucose level, group 3 compared with group 2 (in words): lower than that in group 2
C57BL/6 male mice; Group 3: high-fat diet with 0.2% resveratrol, epididymal, retroperitoneal and perirenal fat, group 1 0.88, group 2 2.17
  Visceral fat weight: 1.00 g
C57BL/6 male mice; Group 3: high-fat diet with 0.2% resveratrol, group 1 1.34, group 2 1.62
  Liver weight: 1.39 g
C57BL/6 male mice; Group 3: high-fat diet with 0.2% resveratrol, group 1 (low-fat) 32.2, group 2 (high-fat) 38.8
  Body weight: 32.1 g
C57BL/6 male mice; Group 3: high-fat diet with 0.2% resveratrol, plasma, non-fasting, group 1 1.43, group 2 6.19
  Leptin: 1.79 ng/mL
C57BL/6 male mice; Group 3: high-fat diet with 0.2% resveratrol, plasma, non-fasting, group 1 2.52, group 2 3.38
  Insulin: 2.03 ng/mL
C57BL/6 male mice; Group 3: high-fat diet with 0.2% resveratrol, plasma, non-fasting, group 1 58, group 2 76
  Total cholesterol: 60 mg/dL
C57BL/6 male mice; Group 3: high-fat diet with 0.2% resveratrol, plasma, non-fasting, group 1 133, group 2 191
  Glucose: 162 mg/dL
